Tested on: BaF3-FL KIT D816V or BaF3-FL KIT V560G/D816V cell line
Test: Cell-based assays of c-Kit mutant kinase activity (cell growth, ATPlite)
Conditions: at least one of the c-kit cell assays of Example 26
Method: The c-Kit mutant D816V inhibitors were assessed using an engineered BaF3-FL KIT D816V or BaF3-FL KIT V560G/D816V cell line. The BaF3-FL KIT D816V cell lines were created by introduction of KIT mutant (D816V) full length constructs that render the cells dependent on the introduced kinase for growth. Inhibitors of c-Kit mutant D816V kinase reduce or eliminate the mediated c-kit mutant D816V kinase activation, resulting in reduced cell proliferation of the BaF3-FL Kit mutant D816V cells. This inhibition is measured by the effect of compound concentration on cell growth to assess IC50 values. BaF3-FL KIT D816V cells were seeded at 1×10^4 cells per well of a 96 well cell culture plate in 50 μl of cell culture medium of RPMI Medium 1X (Invitrogen #11875-093) supplemented with 10% FBS (Invitrogen #10438), 1% Non Essential Amino Acids(Invitrogen #11140), 1% Penicillin Streptomycin (Invitrogen #15140), 1% L-Glutamine (Invitrogen #25030-081). Compounds were dissolved in DMSO at a concentration of 5 mM and were serially diluted 1:3 for a total of eight points and added to the cells to a final maximum concentration of 10 μM in 100 μl cell culture medium (final concentration 0.2% DMSO). Cells were also treated with Dasatinib as a positive control. The cells were incubated at 37° C., 5% CO2 for three days. ATPlite Buffer (Perkin Elmer #6016739) and substrate were equilibrated to room temperature, and enzyme/substrate Recombinant Firefly Luciferase/D-Luciferin was reconstituted. The cell plates were equilibrated to room temperature for 30 minutes, then lysed by addition of 25 uL per well of the ATPlite Reagent. The plate was mixed for 5 minutes on a plate shaker to lyse the cells. The plates were read on a Tecan Safire using Luminescence protocol modified to read 0.1 s per well. The luminescence reading assesses the ATP content, which correlates directly with cell number such that the reading as a function of compound concentration is used to determine the IC50 value.
Plasmids P75635 and P75565 were engineered for mammalian cell expression. In both plasmids, full-length human v-kit Hardy-Zuckerman 4 feline sarcoma viral oncogene homolog gene (NCBI accession NM_000222, KIT, residues M1-V976) was subcloned into the pCI-Neo vector (Promega E1841). Plasmid P75635 contains the mutation of residue Aspartic acid 816 to Valine. Plasmid P75565 contains the double mutation of residues Valine 560 to Glycine and Aspartic acid 816 to Valine. The pCI-neo Mammalian Expression Vector carries the human cytomegalovirus (CMV) immediate-early enhancer/promoter region to promote constitutive expression of KIT and contains the neomycin phosphotransferase gene, a selectable marker.
It is understood that the results of these assays may vary as assay conditions are varied. Inhibition levels determined under the conditions described herein represent a relative activity for the compounds tested under the specific conditions employed. The cell based assays are likely to show variability due to the complexity of the system and the sensitivity thereof to any changes in the assay conditions. […] In some instances, the compounds were not tested in all of the assays, or assay results were not valid.

| IC50 [µM] | SMILES |
| --- | --- |
| < 10 | Cc1[nH]nc(C(=O)Nc2cnc3[nH]c(-c4ccnc(C(=O)N5CCN(C)CC5)c4)cc3c2)c1C [P-2217, 4,5-dimethyl-N-(2-(2-(4-methylpiperazine-1-carbonyl)pyridin-4-yl)-1H-pyrrolo[2,3-b]pyridin-5-yl)-1H-pyrazole-3-carboxamide] |
| < 10 | Cc1n[nH]c(C(=O)Nc2cnc3[nH]c(-c4ccc(C(=O)N5CCSCC5)cc4)cc3c2)c1C [P-2105, 3,4-dimethyl-N-[2-[4-(thiomorpholine-4-carbonyl)phenyl]-1H-pyrrolo[2,3-b]pyridin-5-yl]-1H-pyrazole-5-carboxamide] |
| < 10 | Cc1n[nH]c(C(=O)Nc2cnc3[nH]c(-c4cccc(C(=O)N5CCCC5)c4)cc3c2)c1C [P-2107, 3,4-dimethyl-N-[2-[3-(pyrrolidine-1-carbonyl)phenyl]-1H-pyrrolo[2,3-b]pyridin-5-yl]-1H-pyrazole-5-carboxamide] |
| < 10 | Cc1n[nH]c(C(=O)Nc2cnc3[nH]c(-c4ccc(C(=O)N(C)C)cc4)cc3c2)c1C [P-2085, N-[2-[4-(dimethylcarbamoyl)phenyl]-1H-pyrrolo[2,3-b]pyridin-5-yl]-3,4-dimethyl-1H-pyrazole-5-carboxamide] |
| < 10 | O=C(Nc1cc[nH]n1)c1cnc2[nH]c(-c3ccccc3)cc2c1 [P-2004, 2-phenyl-N-(1H-pyrazol-3-yl)-1H-pyrrolo[2,3-b]pyridine-5-carboxamide] |
| < 10 | CC(=O)Nc1ccc(-c2cc3cc(NC(=O)c4[nH]nc(C)c4C)cnc3[nH]2)cc1 [P-2137, N-[2-(4-acetamidophenyl)-1H-pyrrolo[2,3-b]pyridin-5-yl]-3,4-dimethyl-1H-pyrazole-5-carboxamide] |
| < 10 | Cc1[nH]nc(C(=O)Nc2cnc3[nH]c(-c4cnn(C5CCNCC5)c4C)cc3c2)c1C [P-2198, 4,5-dimethyl-N-(2-(5-methyl-1-(piperidin-4-yl)-1H-pyrazol-4-yl)-1H-pyrrolo[2,3-b]pyridin-5-yl)-1H-pyrazole-3-carboxamide] |
| < 10 | Cc1n[nH]c(C(=O)Nc2cnc3[nH]c(-c4cnn(C(F)F)c4)cc3c2)c1C [P-2140, N-[2-[1-(difluoromethyl)pyrazol-4-yl]-1H-pyrrolo[2,3-b]pyridin-5-yl]-3,4-dimethyl-1H-pyrazole-5-carboxamide] |
| < 10 | CC(=O)N1CC(n2cc(-c3cc4cc(NC(=O)c5n[nH]c(C)c5C)cnc4[nH]3)c(C)n2)C1 [P-2194, N-(2-(1-(1-acetylazetidin-3-yl)-3-methyl-1H-pyrazol-4-yl)-1H-pyrrolo[2,3-b]pyridin-5-yl)-4,5-dimethyl-1H-pyrazole-3-carboxamide] |
| < 10 | Cc1[nH]nc(C(=O)Nc2cnc3[nH]c(-c4ccnc(C(=O)NCCN5CCOCC5)c4)cc3c2)c1C [P-2225, 4-(5-(4,5-dimethyl-1H-pyrazole-3-carboxamido)-1H-pyrrolo[2,3-b]pyridin-2-yl)-N-(2-morpholinoethyl)picolinamide] |
| < 10 | Cc1n[nH]c(C(=O)Nc2cnc3[nH]c(-c4cccc(C(=O)N(C)C)c4)cc3c2)c1C [P-2087, N-[2-[3-(dimethylcarbamoyl)phenyl]-1H-pyrrolo[2,3-b]pyridin-5-yl]-3,4-dimethyl-1H-pyrazole-5-carboxamide] |
| < 10 | COc1ncccc1-c1cc2cc(NC(=O)c3n[nH]c(C)c3C)cnc2[nH]1 [P-2238, N-(2-(2-methoxypyridin-3-yl)-1H-pyrrolo[2,3-b]pyridin-5-yl)-4,5-dimethyl-1H-pyrazole-3-carboxamide] |
| < 10 | O=C(Nc1cnc2[nH]c(-c3ccccc3)cc2c1)c1cccc2[nH]cnc12 [P-2300, N-(2-phenyl-1H-pyrrolo[2,3-b]pyridin-5-yl)-1H-benzimidazole-4-carboxamide] |
| < 10 | COCCNC(=O)c1cc(-c2cc3cc(NC(=O)c4n[nH]c(C)c4C)cnc3[nH]2)ccn1 [P-2220, 4-(5-(4,5-dimethyl-1H-pyrazole-3-carboxamido)-1H-pyrrolo[2,3-b]pyridin-2-yl)-N-(2-methoxyethyl)picolinamide] |
| < 10 | CC(=O)N1CCC(n2ncc(-c3cc4cc(NC(=O)c5n[nH]c(C)c5C)cnc4[nH]3)c2C)CC1 [P-2199, N-(2-(1-(1-acetylpiperidin-4-yl)-5-methyl-1H-pyrazol-4-yl)-1H-pyrrolo[2,3-b]pyridin-5-yl)-4,5-dimethyl-1H-pyrazole-3-carboxamide] |
| < 10 | Cc1c(-c2ccccc2)n[nH]c1C(=O)Nc1cnc2[nH]c(-c3ccccc3)cc2c1 [P-2008, 4-methyl-3-phenyl-N-(2-phenyl-1H-pyrrolo[2,3-b]pyridin-5-yl)-1H-pyrazole-5-carboxamide] |
| < 10 | Cc1cc(F)ccc1-c1cc2cc(NC(=O)c3n[nH]c(C)c3C)cnc2[nH]1 [P-2259, N-(2-(4-fluoro-2-methylphenyl)-1H-pyrrolo[2,3-b]pyridin-5-yl)-4,5-dimethyl-1H-pyrazole-3-carboxamide] |
| < 10 | Cc1[nH]nc(C(=O)Nc2cnc3[nH]c(-c4ccnc(NC(=O)C5CC5)c4)cc3c2)c1C [P-2206, N-(2-(2-(cyclopropanecarboxamido)pyridin-4-yl)-1H-pyrrolo[2,3-b]pyridin-5-yl)-4,5-dimethyl-1H-pyrazole-3-carboxamide] |
| < 10 | Cc1[nH]nc(C(=O)Nc2cnc3[nH]c(-c4ccc(F)c(C#N)c4F)cc3c2)c1C [P-2261, N-(2-(3-cyano-2,4-difluorophenyl)-1H-pyrrolo[2,3-b]pyridin-5-yl)-4,5-dimethyl-1H-pyrazole-3-carboxamide] |
| < 10 | Cc1n[nH]c(C(=O)Nc2cnc3[nH]c(-c4ccc(N5CCCC5)cc4)cc3c2)c1C [P-2125, 3,4-dimethyl-N-[2-(4-pyrrolidin-1-ylphenyl)-1H-pyrrolo[2,3-b]pyridin-5-yl]-1H-pyrazole-5-carboxamide] |
| < 10 | Cc1n[nH]c(C(=O)Nc2cnc3[nH]c(-c4ccccc4F)cc3c2)c1C [P-2093, N-[2-(2-fluorophenyl)-1H-pyrrolo[2,3-b]pyridin-5-yl]-3,4-dimethyl-1H-pyrazole-5-carboxamide] |
| < 10 | Cc1cc(CNc2cnc3[nH]c(-c4ccc(F)cc4)cc3c2)[nH]n1 [P-2142, 2-(4-fluorophenyl)-N-[(5-methyl-1H-pyrazol-3-yl)methyl]-1H-pyrrolo[2,3-b]pyridin-5-amine] |
| < 10 | CCOc1cc(-c2cc3cc(NC(=O)c4n[nH]c(C)c4C)cnc3[nH]2)ccn1 [P-2247, N-(2-(2-ethoxypyridin-4-yl)-1H-pyrrolo[2,3-b]pyridin-5-yl)-4,5-dimethyl-1H-pyrazole-3-carboxamide] |
| < 10 | Cc1[nH]nc(C(=O)Nc2cnc3[nH]c(-c4ccccc4C(F)F)cc3c2)c1C [P-2257, N-(2-(2-(difluoromethyl)phenyl)-1H-pyrrolo[2,3-b]pyridin-5-yl)-4,5-dimethyl-1H-pyrazole-3-carboxamide] |
| < 10 | CCCS(=O)(=O)Nc1cccc(-c2cc3cc(NC(=O)c4[nH]nc(C)c4C)cnc3[nH]2)c1 [P-2126, 3,4-dimethyl-N-[2-[3-(propylsulfonylamino)phenyl]-1H-pyrrolo[2,3-b]pyridin-5-yl]-1H-pyrazole-5-carboxamide] |
| < 10 | Cc1ncccc1-c1cc2cc(NC(=O)c3[nH]nc(C)c3C)cnc2[nH]1 [P-2136, 3,4-dimethyl-N-[2-(2-methyl-3-pyridyl)-1H-pyrrolo[2,3-b]pyridin-5-yl]-1H-pyrazole-5-carboxamide] |
| < 10 | Cc1[nH]nc(C(=O)Nc2cnc3[nH]cc(-c4cccc(N5CCOCC5)n4)c3c2)c1C [P-2192, 4,5-dimethyl-N-(3-(6-morpholinopyridin-2-yl)-1H-pyrrolo[2,3-b]pyridin-5-yl)-1H-pyrazole-3-carboxamide] |
| < 10 | Cc1[nH]nc(C(=O)Nc2cnc3[nH]c(-c4ccnc(C(=O)NCC(C)C)c4)cc3c2)c1C [P-2228, 4-(5-(4,5-dimethyl-1H-pyrazole-3-carboxamido)-1H-pyrrolo[2,3-b]pyridin-2-yl)-N-isobutylpicolinamide] |
| < 10 | Cc1[nH]nc(C(=O)Nc2cnc3[nH]c(C4=CC(C)(C)NC(C)(C)C4)cc3c2)c1C [P-2266, 4,5-dimethyl-N-(2-(2,2,6,6-tetramethyl-1,2,3,6-tetrahydropyridin-4-yl)-1H-pyrrolo[2,3-b]pyridin-5-yl)-1H-pyrazole-3-carboxamide] |

Reference: patent US10301280B2 (Plexxikon Inc., priority 2012, dated 2019)
